# Test results: US4399125A, “Novel antagonists of the antidiuretic action of arginine vasopressin” (priority 1981, dated 1983)
# *1 amine or outer side, *2 acyl side, *3 side chain or, on linkers, in order; H or OH if unused. Where a SMILES comes first, the peptide text is derived from it. Bridges are numbered along the chain shown (N, C = ends). [ ]: non-standard residue; d: D form. The star is where a group is joined. X1 = O=C(CC1(S[*:2])CCCCC1)[*:1]; Propyl = CCC*; iPr = CC(C)*
# Assays:
# [1] = test system: vasopressor response to AVP; assay: Antagonism to the vasopressor response (Dyckes et al.); settings: estimated in vivo pA2 (Schild); effective dose / 67 mL/kg; (n) in parentheses
# Description: Antagonism to the vasopressor response was estimated in accordance with Dyckes et al., J. Med. Chem., vol. 17 (1974) at 969. The values are expressed as pA2 values, defined by Schild et al., Br. J. Pharmacol., vol. 2 (1947) at 189.
# (§1) Antagonistic potencies were determined and expressed as "effective doses" and as pA2 values. The "effective dose" is defined as the dose (in nanomoles per kilogram) that reduces the response seen from 2x units of agonist injected 20 min after the dose of antagonist to the response with 1x units of agonist.
# [2] = test system: antidiuretic response to ADH (arginine vasopressin); assay: Antagonism of the antidiuretic response to ADH (anti-antidiuretic potency) in ethanol-anesthetized water-loaded rats; settings: estimated in vivo pA2 = negative logarithm of effective dose divided by estimated volume of distribution (67 mL/kg); (n) in parentheses
# Description: Activity as antidiuretic agonists was determined by intravenous injection of compounds being evaluated into ethanol-anesthesized water-loaded rats in accordance with Sawyer et al., Endocrinology, vol. 63 (1958) at 694.
# as §1
# [3] = test system: antidiuretic activity (urine flow); settings: prior art statement; cited from earlier work
# [4] = test system: vasopressor response to AVP; settings: prior art statement; cited from earlier work
Compound,Antivasopressor pA2 [1],Anti-Antidiuretic pA2 [2],antidiuretic potency / activity (in words) [3],vasopressor antagonism (in words) [4]
"CC(C)[C@@H]1NC(=O)[C@H](Cc2ccccc2)NC(=O)[C@@H](Cc2ccccc2)NC(=O)CC2(CCCCC2)SSC[C@@H](C(=O)N2CCC[C@H]2C(=O)N[C@@H](CCCNC(=N)N)C(=O)NCC(N)=O)NC(=O)[C@H](CC(N)=O)NC1=O [d(CH2)5 D-Phe VAVP, [1-(β-mercapto-β,β-cyclopentamethylenepropionicacid), 2-D-phenylalanine, 4-valine]-arginine vasopressin] ([dF]FVNCPRG-NH2; linker N-5 via X1)",8.06 ± 0.03,8.07 ± 0.09,–,–
"CC(C)[C@@H]1NC(=O)[C@H](Cc2ccccc2)NC(=O)[C@@H](Cc2ccc(O)cc2)NC(=O)CC2(CCCCC2)SSC[C@@H](C(=O)N2CCC[C@H]2C(=O)N[C@@H](CCCNC(=N)N)C(=O)NCC(N)=O)NC(=O)[C@H](CC(N)=O)NC1=O [d(CH2)5 D-Tyr VAVP, [1-(β-mercapto-β,β-cyclopentamethylenepropionic acid), 2-D-tyrosine, 4-valine]-arginine vasopressin] ([dY]FVNCPRG-NH2; linker N-5 via X1)",8.41 ± 0.11,7.51 ± 0.08,–,–
"COc1ccc(C[C@@H]2NC(=O)CC3(CCCCC3)SSC[C@@H](C(=O)N3CCC[C@H]3C(=O)N[C@H](CCCNC(=N)N)C(=O)NCC(N)=O)NC(=O)[C@H](CC(N)=O)NC(=O)[C@H](C(C)C)NC(=O)[C@H](Cc3ccccc3)NC2=O)cc1 [d(CH2)5 Tyr(Me) VDAVP, [1-(β-mercapto-β,β-cyclopentamethylenepropionic acid), 2-O-methyltyrosine, 4-valine, 8-D-arginine] vasopressin] (Y(Me)FVNCP[dR]G-NH2; linker N-5 via X1)",8.44 ± 0.07,6.68 ± 0.11,–,–
"[1-(β-Mercapto-β,β-cyclopentamethylenepropionic acid] arginine vasopressin",–,–,very low antidiuretic potency,potent vasopressor antagonists
COc1ccc(C[C@H]2NC(=O)CC3(CCCCC3)SSC[C@@H](C(=O)N3CCC[C@H]3C(=O)N[C@@H](CCCNC(=N)N)C(=O)NCC(N)=O)NC(=O)[C@H](CC(N)=O)NC(=O)[C@H](C(C)C)NC(=O)[C@H](Cc3ccccc3)NC2=O)cc1 [d(CH2)5 --D-Tyr(Me) VAVP] ([dY](Me)FVNCPRG-NH2; linker N-5 via X1),8.48 ± 0.08,7.77 ± 0.07,–,–
"CC(C)C[C@H]1NC(=O)CC2(CCCCC2)SSC[C@@H](C(=O)N2CCC[C@H]2C(=O)N[C@@H](CCCNC(=N)N)C(=O)NCC(N)=O)NC(=O)[C@H](CC(N)=O)NC(=O)[C@H](C(C)C)NC(=O)[C@H](Cc2ccccc2)NC1=O [d(CH2)5 [D-Leu^2] VAVP, [1-(β-mercapto-β,β-cyclopentamethylenepropionic acid), 2-D-leucine, 4-valine]-arginine vasopressin] ([dL]FVNCPRG-NH2; linker N-5 via X1)",6.45 ± 0.09,7.79 ± 0.12,–,–
"CC[C@@H](C)[C@H]1NC(=O)CC2(CCCCC2)SSC[C@@H](C(=O)N2CCC[C@H]2C(=O)N[C@@H](CCCNC(=N)N)C(=O)NCC(N)=O)NC(=O)[C@H](CC(N)=O)NC(=O)[C@H](C(C)C)NC(=O)[C@H](Cc2ccccc2)NC1=O [d(CH2)5 [D-Ile^2] VAVP, [1-(β-mercapto-β,β-cyclopentamethylenepropionic acid), 2-D-isoleucine, 4-valine]-arginine vasopressin] ([dI]FVNCPRG-NH2; linker N-5 via X1)",6.94 ± 0.08,7.98 ± 0.05,–,–
CCCOc1ccc(C[C@@H]2NC(=O)CC3(CCCCC3)SSC[C@@H](C(=O)N3CCC[C@H]3C(=O)N[C@@H](CCCNC(=N)N)C(=O)NCC(N)=O)NC(=O)[C@H](CC(N)=O)NC(=O)[C@H](C(C)C)NC(=O)[C@H](Cc3ccccc3)NC2=O)cc1 [d(CH2)5 Tyr(n-Pr) VAVP] (Y(Propyl)FVNCPRG-NH2; linker N-5 via X1),8.22 ± 0.04,7.29 ± 0.07,–,–
CCOc1ccc(C[C@@H]2NC(=O)CC3(CCCCC3)SSC[C@@H](C(=O)N3CCC[C@H]3C(=O)N[C@H](CCCNC(=N)N)C(=O)NCC(N)=O)NC(=O)[C@H](CC(N)=O)NC(=O)[C@H](C(C)C)NC(=O)[C@H](Cc3ccccc3)NC2=O)cc1 [d(CH2)5 Tyr(Et) VDAVP] (Y(Et)FVNCP[dR]G-NH2; linker N-5 via X1),8.31 ± 0.05,7.10 ± 0.08,–,–
"CC(C)[C@@H]1NC(=O)[C@H](Cc2ccccc2)NC(=O)[C@@H](C)NC(=O)CC2(CCCCC2)SSC[C@@H](C(=O)N2CCC[C@H]2C(=O)N[C@@H](CCCNC(=N)N)C(=O)NCC(N)=O)NC(=O)[C@H](CC(N)=O)NC1=O [d(CH2)5 [D-Ala^2] VAVP, [1-(β-mercapto-β,β-cyclopentamethylenepropionic acid), 2-D-alanine, 4-valine]-arginine vasopressin] ([dA]FVNCPRG-NH2; linker N-5 via X1)",5.79 ± 0.08,–,–,–
COc1ccc(C[C@@H]2NC(=O)CC3(CCCCC3)SSC[C@@H](C(=O)N3CCC[C@H]3C(=O)N[C@@H](CCCNC(=N)N)C(=O)NCC(N)=O)NC(=O)[C@H](CC(N)=O)NC(=O)[C@H](C(C)C)NC(=O)[C@H](Cc3ccccc3)NC2=O)cc1 [d(CH2)5 Tyr(Me) VAVP] (Y(Me)FVNCPRG-NH2; linker N-5 via X1),8.32 ± 0.08,7.35 ± 0.06,–,–
CCOc1ccc(C[C@@H]2NC(=O)CC3(CCCCC3)SSC[C@@H](C(=O)N3CCC[C@H]3C(=O)N[C@@H](CCCNC(=N)N)C(=O)NCC(N)=O)NC(=O)[C@H](CC(N)=O)NC(=O)[C@H](C(C)C)NC(=O)[C@H](Cc3ccccc3)NC2=O)cc1 [d(CH2)5 Tyr(Et) VAVP] (Y(Et)FVNCPRG-NH2; linker N-5 via X1),8.16 ± 0.09,7.57 ± 0.06,–,–
"CC(C)[C@@H]1NC(=O)[C@H](Cc2ccccc2)NC(=O)[C@@H](C(C)C)NC(=O)CC2(CCCCC2)SSC[C@@H](C(=O)N2CCC[C@H]2C(=O)N[C@@H](CCCNC(=N)N)C(=O)NCC(N)=O)NC(=O)[C@H](CC(N)=O)NC1=O [d(CH2)5 [D-Val^2] VAVP, [1-(β-mercapto-β,β-cyclopentamethylenepropionic acid), 2-D-valine, 4-valine]-arginine vasopressin] ([dV]FVNCPRG-NH2; linker N-5 via X1)",6.41 ± 0.05,7.48 ± 0.06,–,–
"1-deamino[4-valine, 8-D-arginine] vasopressin [dVDAVP]",–,–,highly active and selective antidiuretic peptide,–
CC(C)Oc1ccc(C[C@@H]2NC(=O)CC3(CCCCC3)SSC[C@@H](C(=O)N3CCC[C@H]3C(=O)N[C@H](CCCNC(=N)N)C(=O)NCC(N)=O)NC(=O)[C@H](CC(N)=O)NC(=O)[C@H](C(C)C)NC(=O)[C@H](Cc3ccccc3)NC2=O)cc1 [d(CH2)5 Tyr(i-Pr) VDAVP] (Y(iPr)FVNCP[dR]G-NH2; linker N-5 via X1),8.41 ± 0.08,6.88 ± 0.07,–,–
CCOc1ccc(C[C@H]2NC(=O)CC3(CCCCC3)SSC[C@@H](C(=O)N3CCC[C@H]3C(=O)N[C@@H](CCCNC(=N)N)C(=O)NCC(N)=O)NC(=O)[C@H](CC(N)=O)NC(=O)[C@H](C(C)C)NC(=O)[C@H](Cc3ccccc3)NC2=O)cc1 [d(CH2)5 --D-Tyr(Et) VAVP] ([dY](Et)FVNCPRG-NH2; linker N-5 via X1),8.22 ± 0.12,7.81 ± 0.07,–,–
"CC(C)[C@@H]1NC(=O)[C@H](Cc2ccccc2)NC(=O)[C@@H](CCCNC(=N)N)NC(=O)CC2(CCCCC2)SSC[C@@H](C(=O)N2CCC[C@H]2C(=O)N[C@@H](CCCNC(=N)N)C(=O)NCC(N)=O)NC(=O)[C@H](CC(N)=O)NC1=O [d(CH2)5 [D-Arg^2] VAVP, [1-(β-mercapto-β,β-cyclopentamethylenepropionic acid), 2-D-arginine, 4-valine]-arginine vasopressin] ([dR]FVNCPRG-NH2; linker N-5 via X1)",~ 5.4,< 5.9,–,–
CC(C)Oc1ccc(C[C@@H]2NC(=O)CC3(CCCCC3)SSC[C@@H](C(=O)N3CCC[C@H]3C(=O)N[C@@H](CCCNC(=N)N)C(=O)NCC(N)=O)NC(=O)[C@H](CC(N)=O)NC(=O)[C@H](C(C)C)NC(=O)[C@H](Cc3ccccc3)NC2=O)cc1 [d(CH2)5 Tyr(i-Pr) VAVP] (Y(iPr)FVNCPRG-NH2; linker N-5 via X1),8.36 ± 0.09,7.32 ± 0.06,–,–
"CC(C)[C@@H]1NC(=O)[C@H](Cc2ccccc2)NC(=O)[C@@H](Cc2ccccc2)NC(=O)CC2(CCCCC2)SSC[C@@H](C(=O)N2CCC[C@H]2C(=O)N[C@H](CCCNC(=N)N)C(=O)NCC(N)=O)NC(=O)[C@H](CC(N)=O)NC1=O [d(CH2)5 D-Phe VDAVP, [1-(β-mercapto-β,β-cyclopentamethylenepropionic acid), 2-D-phenylalanine, 4-valine, 8-D-arginine] vasopressin] ([dF]FVNCP[dR]G-NH2; linker N-5 via X1)",7.98 ± 0.07,7.07 ± 0.10,–,–
CCCOc1ccc(C[C@@H]2NC(=O)CC3(CCCCC3)SSC[C@@H](C(=O)N3CCC[C@H]3C(=O)N[C@H](CCCNC(=N)N)C(=O)NCC(N)=O)NC(=O)[C@H](CC(N)=O)NC(=O)[C@H](C(C)C)NC(=O)[C@H](Cc3ccccc3)NC2=O)cc1 [d(CH2)5 Tyr(n-Pr) VDAVP] (Y(Propyl)FVNCP[dR]G-NH2; linker N-5 via X1),7.86 ± 0.10,6.67 ± 0.05,–,–
